Experimental data from paper PMC12549899 (Nature Communications, 2025).

Molecular target: T1, DrOTOP1 E384A (Danio rerio, UniProt Q7ZWK8, E384A)
T1 construct: A previously generated codon-optimized full-length DrOTOP1[8]; (UniProt: Q7ZWK8) construct; expressed in transfected cells; host or cells: HEK-293 (CRL-1573, ATCC)
T1 sequence (Q7ZWK8 1-586 E384A): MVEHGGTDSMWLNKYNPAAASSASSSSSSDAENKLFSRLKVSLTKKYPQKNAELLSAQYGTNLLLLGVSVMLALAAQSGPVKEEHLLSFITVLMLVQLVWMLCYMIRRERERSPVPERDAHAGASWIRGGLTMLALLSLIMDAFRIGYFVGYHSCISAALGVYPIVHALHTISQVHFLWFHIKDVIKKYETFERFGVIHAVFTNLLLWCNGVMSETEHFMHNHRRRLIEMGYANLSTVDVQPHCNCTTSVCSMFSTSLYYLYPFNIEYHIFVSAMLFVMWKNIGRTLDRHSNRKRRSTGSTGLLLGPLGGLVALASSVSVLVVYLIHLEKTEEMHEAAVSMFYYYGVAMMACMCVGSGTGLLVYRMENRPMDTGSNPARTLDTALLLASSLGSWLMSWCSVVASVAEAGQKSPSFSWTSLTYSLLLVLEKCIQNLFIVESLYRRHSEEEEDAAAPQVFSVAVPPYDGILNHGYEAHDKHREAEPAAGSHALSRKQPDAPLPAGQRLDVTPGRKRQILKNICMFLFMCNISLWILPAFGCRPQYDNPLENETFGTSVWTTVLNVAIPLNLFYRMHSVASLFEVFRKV
Assay: Whole-cell patch-clamp, inhibition of acid-evoked currents, DrOTOP1 E384A (central site)
Format: cell-based, zebrafish (Danio rerio)
Text: To functionally test the significance of the two binding sites identified by cryo-EM, we generated point mutations of DrOTOP1 using the binding poses and conformational changes observed in DrOTOP1_C2.2 to guide our mutations. As per the binding pose that best fits our cryo-EM density, C2.2 forms the following interactions in the outer site: hydrophobic packing against many non-polar residues W126, G130, M133, L134, F271, F570, and M573, and π-stacking with W532 (Fig. 5A). In addition, C2.2 could potentially form H-bonds with E267, if the sidechain is protonated or a water bridge is present, and with H574 if it moves closer (Fig. 5A). Likewise, C2.36 presents a heterocyclic nitrogen that can potentially form a H-bond with E267, similarly, provided a protonation or water bridge is present (Fig. 5B). In addition, C2.36 forms a T-shaped π-stacking interaction with H574, whose sidechain has rotated 90 degrees (compared to DrOTOP1_apo), presumably to accommodate the interaction (Fig. 5B). Considering other inhibitors discovered from the second round of screening, many contain functional groups like the carbonyl groups of Group 1 molecules and the heterocyclic nitrogen atoms of Group 2 molecules (Supplementary Fig. 3E), that can potentially form similar H-bonds with E267 as C2.2 and C2.36, assuming the binding modes are similar. In the central site, C2.2 binds with the following interactions: hydrophobic packing with residues V201, F271, A274, V278, and A388, π-stacking with F277, and H-bonding with E384 (Fig. 5C).
We next tested mutations of the central site (L205W, A274W, F277A, E384A L385W, A388W). V201W and S389W, two additional central site mutations, were excluded from the study due to complete loss of channel activity. Mutation of E384 to alanine is expected to disrupt potential hydrogen bonding with C2.2. Of note, E384 is one of the few charged residues in the central pocket and could form a salt bridge with K281, that could also be affected by the mutation. Additionally, in our DrOTOP1_C2.2 structure, we observed that F277 underwent a substantial rearrangement, likely to avoid steric clash and accommodate C2.2 binding. Thus, we introduced the F277A mutation to test if removing this steric clash would enhance C2.2 inhibition.
HEK-293 cells (CRL-1573, ATCC) were cultured in DMEM (Thermofisher 11995073) containing 10% fetal bovine serum (Life Technology 16000044) and Penicillin-Streptomycin (100 I.U./mL) and (100 µg/mL), respectively. Cells were transfected with WT DrOTOP1 or mutant DrOTOP1 channels in 35 mm petri dishes, with ~ 500 ng DNA and 2 μL TransIT-LT1 transfection reagent (Mirus Bio Corporation, Cat # MIR2300) following the manufacturer’s protocol. All constructs were subcloned into a pcDNA3.1 vector that adds an N-terminal fusion tag consisting of an octahistidine tag followed by eGFP, a Gly-Thr-Gly-Thr linker and a 3C protease cleavage site ([…]) followed by WT DrOTOP1, WT mOTOP1, WT hOTOP1, or mutated DrOTOP1. Point mutations were generated via In-Fusion Cloning (Takara) using single-stranded DNA primers generated through IDT and sequence confirmed by Sanger sequencing (GeneWiz).
Whole-cell patch-clamp recording was performed as previously described[6],[22],[25]. Recordings were made with an Axopatch 200B amplifier, digitized with a Digidata 1322a 16-bit data acquisition system, acquired with pClamp 8.2 and analyzed with Clampfit 10 (Molecular Devices). Recordings were sampled at 5 kHz and filtered at 1 kHz. Patch Pipettes with resistance of […] were fabricated from borosilicate glass, and only recordings with a giga-Ohm seal were used in analysis. Membrane potential was held at −80 mV for the duration of recordings. At the beginning of recordings and between, cells were washed with Tyrode’s solution (see below). […]

## C=C(C)COc1ccccc1NC(=O)c1nc[nH]c1C [C2.2]
  Hill coefficient: 1.184
3 µM, single cells
  inhibition at 3 µM: 10.2%
10 µM, single cells or mean
  inhibition at 10 µM: ~40%
30 µM, single cells
  inhibition at 30 µM: 70.7%
100 µM, single cells
  inhibition at 100 µM: 96.3%
300 µM, single cells
  inhibition at 300 µM: 97.3%
pH 5.5
  IC50: 15.3 µM
